According to BigSolDB 2.1:

Settings: in water

O=C(O)c1cc(O)c(O)c(O)c1
Settings	solubility (mole fraction)
298 K	0.00158
303 K	0.00176
308 K	0.00203
313 K	0.00248
318 K	0.00311
323 K	0.00433
328 K	0.00557
333 K	0.00712
338 K	0.00898
343 K	0.0126
